Results from patent US7868135B2, “Compositions of lipopeptide antibiotic derivatives and methods of use thereof” (priority 2003, dated 2011).
Where two headings read alike, the source gives them in different places. Starred links: 1 amine or outer side, 2 acyl side, 3 side chain; linkers in the order of their positions; H or OH if unused. Positions of bridges follow the written chain, without caps; N, C: chain ends. Non-standard residues stand in square brackets, D forms with d. Residues, ends and D or L forms follow the SMILES beside them. ξ: configuration not given here. *: point of attachment. X14 = CC(NC(=O)[C@@H](N)CNC(=O)CCN)C(N[*:1])C(=O)[*:2]; X10 = CC(C)=CCC/C(C)=C/C(=O)NC(C)C(N[*:1])C(=O)[*:2]; X11 = CC(NC(=O)CC1CC2CCC1C2)C(N[*:1])C(=O)[*:2]; X15 = CC(NC(=O)CCNC(N)=O)C(N[*:1])C(=O)[*:2]; ξAbu(βξ-NH2) = CC(N[*:3])C(N[*:1])C(=O)[*:2]; X26 = COC(=O)CC(=O)NC(C)C(N[*:1])C(=O)[*:2]; X41 = CC(NC(=O)C1CCCCC1)C(N[*:1])C(=O)[*:2]; X16 = CCC(=O)C(=O)NC(C)C(N[*:1])C(=O)[*:2]; X24 = C/C=C/C(=O)NC(C)C(N[*:1])C(=O)[*:2]; X20 = CC#CC(=O)NC(C)C(N[*:1])C(=O)[*:2]; X39 = C=CC(=O)NC(C)C(N[*:1])C(=O)[*:2]; Pentadecanoyl = CCCCCCCCCCCCCCC(=O)*; ξAsp(βξ-Me) = CC(C(=O)O)C(N)C(=O)O; Pip = O=C(O)[CH]1CCCCN1; ξD = NC(CC(=O)O)C(=O)O; ξPip = O=C(O)C1CCCCN1; ξV = CC(C)C(N)C(=O)O; ξP = O=C(O)C1CCCN1

Tested on: Staphylococcus aureus (MSSA)
Procedure, shortened: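 Broth microdilution MIC per NCCLS M7-A6 with doubling serial dilutions, in cation-adjusted Mueller-Hinton broth supplemented with 0.625 mM calcium.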

MIC (24 h) | Compound | MIC (S. aureus (MSSA), CAMHB supplemented with 0.625 mM calcium, 24 hours at about 37° C., a range = compound tested multiple times)
4 µg/mL | CCCCCCCCCCCCCCC(=O)NC(CC(=O)O)C(=O)NC1C(=O)N2CCCCC2C(=O)NC(C(C)C(=O)O)C(=O)NC(CC(=O)O)C(=O)NCC(=O)NC(CC(=O)O)C(=O)NCC(=O)NC(C(C)NC(=O)CN(C)C(=O)CCCCCN)C(=O)NC(C(C)C)C(=O)N2CCCC2C(=O)NC1C (stereo not shown) [Compound 198, C15-Amphomycin-9-Sar-Ahx] | –
1 µg/mL | CCCCCCCCCCCCCCC(=O)NC(CC(=O)O)C(=O)NC1C(=O)N2CCCCC2C(=O)NC(C(C)C(=O)O)C(=O)NC(CC(=O)O)C(=O)NCC(=O)NC(CC(=O)O)C(=O)NCC(=O)NC(C(C)NC(=O)[C@@H](N)CNC(=O)CCN)C(=O)NC(C(C)C)C(=O)N2CCCC2C(=O)NC1C (stereo partly drawn) [Compound 200, C15-Amphomycin-9-Dap-(β-N-(β-Ala))] (Pentadecanoyl-[ξD][ξAbu(βξ-NH2)][ξPip][ξAsp(βξ-Me)][ξD]G[ξD]G[X14][ξV][ξP]; lactam 2-C) | –
32 µg/mL | CCCCCCCCCCCCCCC(=O)NC(CC(=O)O)C(=O)NC1C(=O)N2CCCCC2C(=O)NC(C(C)C(=O)O)C(=O)NC(CC(=O)O)C(=O)NCC(=O)NC(CC(=O)O)C(=O)NCC(=O)NC(C(C)NC(=O)CCCCC)C(=O)NC(C(C)C)C(=O)N2CCCC2C(=O)NC1C (stereo not shown) [Compound 201, C15-Amphomycin-9-C6] | –
16 µg/mL | CCCCCCCCCCCCCCC(=O)NC(CC(=O)O)C(=O)NC1C(=O)N2CCCCC2C(=O)NC(C(C)C(=O)O)C(=O)NC(CC(=O)O)C(=O)NCC(=O)NC(CC(=O)O)C(=O)NCC(=O)NC(C(C)NC(=O)CCCCCCC)C(=O)NC(C(C)C)C(=O)N2CCCC2C(=O)NC1C (stereo not shown) [Compound 205, C15-Amphomycin-9-C8] | –
8 µg/mL | CCCCCCCCCCCCCCC(=O)NC(CC(=O)O)C(=O)NC1C(=O)N2CCCCC2C(=O)NC(C(C)C(=O)O)C(=O)NC(CC(=O)O)C(=O)NCC(=O)NC(CC(=O)O)C(=O)NCC(=O)NC(C(C)NC(=O)C2CCCCC2)C(=O)NC(C(C)C)C(=O)N2CCCC2C(=O)NC1C (stereo not drawn) [Compound 206, C15-Amphomycin-9-cHexyl] (Pentadecanoyl-D[ξAbu(βξ-NH2)][Pip][ξAsp(βξ-Me)]DGDG[X41]VP; lactam 2-C; configuration not given here) | –
16 µg/mL | CCCCCCCCCCCCCCC(=O)NC(CC(=O)O)C(=O)NC1C(=O)N2CCCCC2C(=O)NC(C(C)C(=O)O)C(=O)NC(CC(=O)O)C(=O)NCC(=O)NC(CC(=O)O)C(=O)NCC(=O)NC(C(C)NC(=O)CCC)C(=O)NC(C(C)C)C(=O)N2CCCC2C(=O)NC1C (stereo not shown) [Compound 207, C15-Amphomycin-9-C4] | –
4 µg/mL | CCCCCCCCCCCCCCC(=O)NC(CC(=O)O)C(=O)NC1C(=O)N2CCCCC2C(=O)NC(C(C)C(=O)O)C(=O)NC(CC(=O)O)C(=O)NCC(=O)NC(CC(=O)O)C(=O)NCC(=O)NC(C(C)NC(=O)CC2CC3CCC2C3)C(=O)NC(C(C)C)C(=O)N2CCCC2C(=O)NC1C (stereo not drawn) [Compound 208, C15-Amphomycin-9-(2-Norbornaneacetyl)] (Pentadecanoyl-D[ξAbu(βξ-NH2)][Pip][ξAsp(βξ-Me)]DGDG[X11]VP; lactam 2-C; configuration not given here) | –
– | CCCCCCCCCCCCCCC(=O)NC(CC(=O)O)C(=O)NC1C(=O)N2CCCCC2C(=O)NC(C(C)C(=O)O)C(=O)NC(CC(=O)O)C(=O)NCC(=O)NC(CC(=O)O)C(=O)NCC(=O)NC(C(C)NC(=O)[C@@H]2CCC(=O)O2)C(=O)NC(C(C)C)C(=O)N2CCCC2C(=O)NC1C (stereo partly drawn) [Compound 210, C15-Amphomycin-9-((S)-(+)-5-Oxo-2-Tetrahydrofurancarbonyl)] | 2 µg/mL
1 µg/mL | CCCCCCCCCCCCCCC(=O)NC(CC(=O)O)C(=O)NC1C(=O)N2CCCCC2C(=O)NC(C(C)C(=O)O)C(=O)NC(CC(=O)O)C(=O)NCC(=O)NC(CC(=O)O)C(=O)NCC(=O)NC(C(C)NC(=O)CCNC(N)=O)C(=O)NC(C(C)C)C(=O)N2CCCC2C(=O)NC1C (stereo not drawn) [Compound 212, C15-Amphomycin-9-(Carbamoyl-β-Ala)] (Pentadecanoyl-D[ξAbu(βξ-NH2)][Pip][ξAsp(βξ-Me)]DGDG[X15]VP; lactam 2-C; configuration not given here) | –
2 µg/mL | C=CC(=O)NC(C)C1NC(=O)CNC(=O)C(CC(=O)O)NC(=O)CNC(=O)C(CC(=O)O)NC(=O)C(C(C)C(=O)O)NC(=O)C2CCCCN2C(=O)C(NC(=O)C(CC(=O)O)NC(=O)CCCCCCCCCCCCCC)C(C)NC(=O)C2CCCN2C(=O)C(C(C)C)NC1=O (stereo not drawn) [Compound 213, C15-Amphomycin-9-Acryl] (Pentadecanoyl-D[ξAbu(βξ-NH2)][Pip][ξAsp(βξ-Me)]DGDG[X39]VP; lactam 2-C; configuration not given here) | –
8 µg/mL | C/C=C/C(=O)NC(C)C1NC(=O)CNC(=O)C(CC(=O)O)NC(=O)CNC(=O)C(CC(=O)O)NC(=O)C(C(C)C(=O)O)NC(=O)C2CCCCN2C(=O)C(NC(=O)C(CC(=O)O)NC(=O)CCCCCCCCCCCCCC)C(C)NC(=O)C2CCCN2C(=O)C(C(C)C)NC1=O (stereo not drawn) [Compound 218, C15-Amphomycin-9-Crotonyl] (Pentadecanoyl-D[ξAbu(βξ-NH2)][Pip][ξAsp(βξ-Me)]DGDG[X24]VP; lactam 2-C; configuration not given here) | –
2 µg/mL | CCCCCCCCCCCCCCC(=O)NC(CC(=O)O)C(=O)NC1C(=O)N2CCCCC2C(=O)NC(C(C)C(=O)O)C(=O)NC(CC(=O)O)C(=O)NCC(=O)NC(CC(=O)O)C(=O)NCC(=O)NC(C(C)NC(=O)CCCCCCCCC)C(=O)NC(C(C)C)C(=O)N2CCCC2C(=O)NC1C (stereo not shown) [Compound 220, C15-Amphomycin-9-C10] | –
16 µg/mL | CCCCCCCCCCCCCCC(=O)NC(CC(=O)O)C(=O)NC1C(=O)N2CCCCC2C(=O)NC(C(C)C(=O)O)C(=O)NC(CC(=O)O)C(=O)NCC(=O)NC(CC(=O)O)C(=O)NCC(=O)NC(C(C)NC(=O)C(=O)CC)C(=O)NC(C(C)C)C(=O)N2CCCC2C(=O)NC1C (stereo not drawn) [Compound 223, C15-Amphomycin-9-(α-Ketobutyl)] (Pentadecanoyl-D[ξAbu(βξ-NH2)][Pip][ξAsp(βξ-Me)]DGDG[X16]VP; lactam 2-C; configuration not given here) | –
8 µg/mL | CCCCCCCCCCCCCCC(=O)NC(CC(=O)O)C(=O)NC1C(=O)N2CCCCC2C(=O)NC(C(C)C(=O)O)C(=O)NC(CC(=O)O)C(=O)NCC(=O)NC(CC(=O)O)C(=O)NCC(=O)NC(C(C)NC(=O)/C=C(\C)CCC=C(C)C)C(=O)NC(C(C)C)C(=O)N2CCCC2C(=O)NC1C (stereo not drawn) [Compound 224, C15-Amphomycin-9-Geranyl] (Pentadecanoyl-D[ξAbu(βξ-NH2)][Pip][ξAsp(βξ-Me)]DGDG[X10]VP; lactam 2-C; configuration not given here) | –
32 µg/mL | CC#CC(=O)NC(C)C1NC(=O)CNC(=O)C(CC(=O)O)NC(=O)CNC(=O)C(CC(=O)O)NC(=O)C(C(C)C(=O)O)NC(=O)C2CCCCN2C(=O)C(NC(=O)C(CC(=O)O)NC(=O)CCCCCCCCCCCCCC)C(C)NC(=O)C2CCCN2C(=O)C(C(C)C)NC1=O (stereo not drawn) [Compound 227, C15-Amphomycin-9-(2-Butynyl)] (Pentadecanoyl-D[ξAbu(βξ-NH2)][Pip][ξAsp(βξ-Me)]DGDG[X20]VP; lactam 2-C; configuration not given here) | –

Compound | MIC (24 h) | MIC (S. aureus (MSSA), CAMHB supplemented with 0.625 mM calcium, 24 hours at about 37° C., a range = compound tested multiple times)
CCCCCCCCCCCCCCC(=O)NC(CC(=O)O)C(=O)NC1C(=O)N2CCCCC2C(=O)NC(C(C)C(=O)O)C(=O)NC(CC(=O)O)C(=O)NCC(=O)NC(CC(=O)O)C(=O)NCC(=O)NC(C(C)NC(=O)CC(=O)OC)C(=O)NC(C(C)C)C(=O)N2CCCC2C(=O)NC1C (stereo not drawn) [Compound 231] (Pentadecanoyl-D[ξAbu(βξ-NH2)][Pip][ξAsp(βξ-Me)]DGDG[X26]VP; lactam 2-C; configuration not given here) | 8 µg/mL | –
